Experiments:
[1] = target: T1, AR (AR-full length) in LNCaP cells (Homo sapiens, UniProt P10275, T878A); assay: LNCaP Androgen Receptor Imaging Assay (immunofluorescence of endogenous nuclear AR); assay type: cell-based; conditions: 24 h incubation; for DC50: concentration giving 50% of maximum degradation of AR per curve fit, single experiment or average of two or more; for Dmax: LNCaP, maximum degradation observed, normalized as % of positive control (prior art AR PROTAC at 3 μM)
T1 construct: the prostate cancer cell line LNCaP (expressing AR-full length); endogenous in cells; host or cells: LNCaP
T1 sequence (P10275 whole entry T878A): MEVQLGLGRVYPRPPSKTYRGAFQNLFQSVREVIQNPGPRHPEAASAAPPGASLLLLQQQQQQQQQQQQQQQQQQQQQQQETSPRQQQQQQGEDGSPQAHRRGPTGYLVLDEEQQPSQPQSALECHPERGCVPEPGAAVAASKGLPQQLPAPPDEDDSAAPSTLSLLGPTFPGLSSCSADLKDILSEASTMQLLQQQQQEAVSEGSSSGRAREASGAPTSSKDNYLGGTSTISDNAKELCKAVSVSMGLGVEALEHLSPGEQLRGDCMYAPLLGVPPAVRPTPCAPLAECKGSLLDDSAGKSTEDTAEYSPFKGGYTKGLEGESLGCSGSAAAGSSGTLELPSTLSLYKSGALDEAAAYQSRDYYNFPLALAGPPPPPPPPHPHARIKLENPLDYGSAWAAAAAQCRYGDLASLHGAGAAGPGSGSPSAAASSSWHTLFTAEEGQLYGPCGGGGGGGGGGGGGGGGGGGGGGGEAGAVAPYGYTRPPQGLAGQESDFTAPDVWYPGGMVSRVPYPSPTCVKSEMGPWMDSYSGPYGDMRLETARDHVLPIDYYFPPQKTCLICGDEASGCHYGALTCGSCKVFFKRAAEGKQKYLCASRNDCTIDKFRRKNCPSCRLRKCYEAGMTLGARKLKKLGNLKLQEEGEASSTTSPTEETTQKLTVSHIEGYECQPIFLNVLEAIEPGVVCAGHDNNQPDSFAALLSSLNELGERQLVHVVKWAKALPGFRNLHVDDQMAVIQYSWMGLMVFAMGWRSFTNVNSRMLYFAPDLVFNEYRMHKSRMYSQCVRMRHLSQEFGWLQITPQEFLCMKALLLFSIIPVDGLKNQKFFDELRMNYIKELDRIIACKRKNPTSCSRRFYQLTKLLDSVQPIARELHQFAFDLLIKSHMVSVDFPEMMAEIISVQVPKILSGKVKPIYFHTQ
T1 sequence (Q96SW2 whole entry partner): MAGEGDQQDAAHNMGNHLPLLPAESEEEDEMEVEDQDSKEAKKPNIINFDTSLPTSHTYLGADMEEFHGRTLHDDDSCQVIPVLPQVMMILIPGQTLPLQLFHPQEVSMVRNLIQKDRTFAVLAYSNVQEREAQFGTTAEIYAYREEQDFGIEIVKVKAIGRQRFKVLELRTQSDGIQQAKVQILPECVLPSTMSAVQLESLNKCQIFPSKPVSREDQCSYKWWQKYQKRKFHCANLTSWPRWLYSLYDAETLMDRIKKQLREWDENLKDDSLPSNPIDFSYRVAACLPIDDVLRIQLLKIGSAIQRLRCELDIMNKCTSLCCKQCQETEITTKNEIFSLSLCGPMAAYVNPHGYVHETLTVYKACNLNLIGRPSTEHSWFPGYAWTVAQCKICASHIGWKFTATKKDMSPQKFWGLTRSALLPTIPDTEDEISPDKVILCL
Procedure, shortened: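 LNCaP cells (12,000/well) received a 12-point compound dose series (0.3% DMSO) for 24 h at 37° C., then were PFA-fixed and stained for AR (AR441) and nuclei (DRAQ5). Nuclear AR was quantified by imaging, normalized to a 3 μM AR PROTAC control; DC50 and Dmax came from Hill/bell curve fits.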

[2] = target: T2, AR (L702H) in LNCaP cells (Homo sapiens, UniProt P10275, L702H/T878A); assay: LNCaP Androgen Receptor L702H Imaging Assay (LNCaP cells engineered by CRISPR/Cas9); assay type: cell-based; conditions: LNCaP cells with AR L702H mutation, 24 h incubation; for DC50: concentration giving 50% of maximum degradation of AR (L702H) per curve fit; for Dmax: LNCaP, maximum degradation observed, normalized as % of positive control
T2 construct: engineered to introduce the mutation L702H into the AR gene using CRISPR/Cas9; endogenous in cells; host or cells: LNCaP cells edited by CRISPR/Cas9 at the AR gene
T2 sequence (P10275 whole entry L702H/T878A): as the sequence (P10275 whole entry T878A) above, with L702H counted along it
T2 sequence (Q96SW2 whole entry partner): as the sequence (Q96SW2 whole entry partner) above
Procedure, shortened: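 CRISPR-engineered LNCaP cells carrying AR L702H were treated 24 h at 37 °C with a 12-point compound dose response (0.3% DMSO), then fixed and immunostained for AR with DRAQ5 nuclear counterstain. Nuclear AR was quantified by imaging, normalized to positive control; DC50 and Dmax came from Hill or bell-shaped fits.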

| Compound | DC50 [1] [nM] | Dmax [1] [%] | DC50 [2] [nM] | Dmax [2] [%] |
| --- | --- | --- | --- | --- |
| Cc1ccc(N2CCC(c3ccc(N4CCC(CN5CCC(n6ccc7c(N8CCC(=O)NC8=O)cccc76)CC5)CC4)cc3F)CC2)c2[nH]cc(C#N)c12 [Example 42, 7-(4-{4-[4-({4-[4-(2,4-Dioxo-1,3-diazinan-1-yl)-1H-indol-1-yl]piperidin-1-yl}methyl)piperidin-1-yl]-2-fluorophenyl}piperidin-1-yl)-4-methyl-1H-indole-3-carbonitrile] | 29 | 101 | 62 | 107 |
| N#Cc1c[nH]c2c(N3CCC(c4ccc(OCCCCN5CCN(c6ccc7c(c6)CN(C6CCC(=O)NC6=O)C7=O)CC5)cc4)CC3)ccc(F)c12 (stereo not drawn) [Example 44, 7-{4-[4-(4-{4-[2-(2,6-Dioxopiperidin-3-yl)-1-oxo-2,3-dihydro-1H-isoindol-5-yl]piperazin-1-yl}butoxy)phenyl]piperidin-1-yl}-4-fluoro-1H-indole-3-carbonitrile] | 4 | 95 | 2 | 96 |
| N#Cc1c[nH]c2c(N3CCC(c4ccc(OCCCCN5CCC(n6ccc7c(N8CCC(=O)NC8=O)cccc76)CC5)cc4)CC3)ccc(Cl)c12 [Example 46, 4-Chloro-7-{4-[4-(4-{4-[4-(2,4-dioxo-1,3-diazinan-1-yl)-1H-indol-1-yl]piperidin-1-yl}butoxy)phenyl]piperidin-1-yl}-1H-indole-3-carbonitrile] | 4 | 101 | 12 | 98 |
| COc1nc(N2CCN(CC3CCN(c4ccc([C@H]5CCCN(c6ccc(Cl)c7c(C#N)c[nH]c67)C5)cc4)CC3)CC2)cc2c1C(=O)N(C1CCC(=O)NC1=O)C2 (stereo partly drawn) [Example 47, 4-Chloro-7-[(3R)-3-{4-[4-({4-[2-(2,6-dioxopiperidin-3-yl)-4-methoxy-3-oxo-2,3-dihydro-1H-pyrrolo[3,4-c]pyridin-6-yl]piperazin-1-yl}methyl)piperidin-1-yl]phenyl}piperidin-1-yl]-1H-indole-3-carbonitrile] | 7 | 84 | 7 | 100 |
| COc1cc(N2CCN(CCCCOc3ccc(C4CCN(c5ccc(C)c6c(C#N)c[nH]c56)CC4)cc3)CC2)cc2c1C(=O)N(C1CCC(=O)NC1=O)C2=O (stereo not drawn) [Example 48, 7-{4-[4-(4-{4-[2-(2,6-Dioxopiperidin-3-yl)-7-methoxy-1,3-dioxo-2,3-dihydro-1H-isoindol-5-yl]piperazin-1-yl}butoxy)phenyl]piperidin-1-yl}-4-methyl-1H-indole-3-carbonitrile] | 57 | 97 | 359 | 99 |
| COc1cc(N2CCN(CC3CCN(c4ccc(C5CCN(c6ccc(Cl)c7c(C#N)c[nH]c67)CC5)cc4)CC3)CC2)cc2c1C(=O)N(C1CCC(=O)NC1=O)C2=O (stereo not drawn) [Example 49, 4-Chloro-7-(4-{4-[4-({4-[2-(2,6-dioxopiperidin-3-yl)-7-methoxy-1,3-dioxo-2,3-dihydro-1H-isoindol-5-yl]piperazin-1-yl}methyl)piperidin-1-yl]phenyl}piperidin-1-yl)-1H-indole-3-carbonitrile] | 33 | 91 | 45 | 97 |
| Cc1ccc(N2CCC(c3ccc(OCCCCN4CCN(c5cc6c(cc5F)C(=O)N(C5CCC(=O)NC5=O)C6=O)CC4)cc3)CC2)c2[nH]cc(C#N)c12 (stereo not drawn) [Example 50, 7-{4-[4-(4-{4-[2-(2,6-Dioxopiperidin-3-yl)-6-fluoro-1,3-dioxo-2,3-dihydro-1H-isoindol-5-yl]piperazin-1-yl}butoxy)phenyl]piperidin-1-yl}-4-methyl-1H-indole-3-carbonitrile] | 137 | 98 | 769 | 94 |
| N#Cc1c[nH]c2c(N3CCC(c4ccc(N5CCC(CN6CCN(c7cc8c(cc7F)C(=O)N(C7CCC(=O)NC7=O)C8=O)CC6)CC5)cc4)CC3)ccc(F)c12 (stereo not drawn) [Example 52, 7-(4-{4-[4-({4-[2-(2,6-Dioxopiperidin-3-yl)-6-fluoro-1,3-dioxo-2,3-dihydro-1H-isoindol-5-yl]piperazin-1-yl}methyl)piperidin-1-yl]phenyl}piperidin-1-yl)-4-fluoro-1H-indole-3-carbonitrile] | 62 | 93 | 52 | 97 |
| N#Cc1c[nH]c2c(N3CCC[C@@H](c4ccc(N5CCC(CN6CCN(c7cc8c(cc7F)C(=O)N(C7CCC(=O)NC7=O)C8=O)CC6)CC5)cc4)C3)ccc(Cl)c12 (stereo partly drawn) [Example 53, 4-Chloro-7-[(3S)-3-{4-[4-({4-[2-(2,6-dioxopiperidin-3-yl)-6-fluoro-1,3-dioxo-2,3-dihydro-1H-isoindol-5-yl]piperazin-1-yl}methyl)piperidin-1-yl]phenyl}piperidin-1-yl]-1H-indole-3-carbonitrile] | 30 | 99 | 78 | 103 |
| Cc1ccc(N2CCC(c3ccc(OCCCCN4CCN(c5ccc6c(c5)C(=O)N(C5CCC(=O)NC5=O)C6=O)CC4)cc3)CC2)c2[nH]cc(C#N)c12 (stereo not drawn) [Example 56, 7-{4-[4-(4-{4-[2-(2,6-Dioxopiperidin-3-yl)-1,3-dioxo-2,3-dihydro-1H-isoindol-5-yl]piperazin-1-yl}butoxy)phenyl]piperidin-1-yl}-4-methyl-1H-indole-3-carbonitrile] | 61 | 101 | 357 | 94 |
| N#Cc1c[nH]c2c(N3CCC(c4ccc(OCCCCN5CCN(c6ccc7c(c6)CN(C6CCC(=O)NC6=O)C7=O)CC5)cc4)CC3)cccc12 (stereo not drawn) [Example 57] | 18 | 87 | 31 | 79 |
| N#Cc1c[nH]c2c(N3CCC(c4ccc(OCCCCN5CCC(n6ccc7c(N8CCC(=O)NC8=O)cccc76)CC5)cc4)CC3)cccc12 [Example 58, 7-{4-[4-(4-{4-[4-(2,4-Dioxo-1,3-diazinan-1-yl)-1H-indol-1-yl]piperidin-1-yl}butoxy)phenyl]piperidin-1-yl}-1H-indole-3-carbonitrile] | 13 | 96 | 114 | 78 |

Further lines, results first:

| DC50 [1] [nM] | Dmax [1] [%] | DC50 [2] [nM] | Dmax [2] [%] | Compound |
| --- | --- | --- | --- | --- |
| 17 | 98 | 29 | 95 | COc1cc(N2CCN(CC3CCN(c4ccc(C5CCN(c6ccc(C)c7c(C#N)c[nH]c67)CC5)c(F)c4)CC3)CC2)cc2c1C(=O)N(C1CCC(=O)NC1=O)C2 (stereo not drawn) [Example 41, 7-(4-{4-[4-({4-[2-(2,6-Dioxopiperidin-3-yl)-7-methoxy-1-oxo-2,3-dihydro-1H-isoindol-5-yl]piperazin-1-yl}methyl)piperidin-1-yl]-2-fluorophenyl}piperidin-1-yl)-4-methyl-1H-indole-3-carbonitrile] |
| 73 | 94 | 160 | 97 | COc1cc(N2CCN(CC3CCN(c4ccc(C5CCN(c6ccc(C)c7c(C#N)c[nH]c67)CC5)c(F)c4)CC3)CC2)cc2c1C(=O)N(C1CCC(=O)NC1=O)C2=O (stereo not drawn) [Example 43, 7-(4-{4-[4-({4-[2-(2,6-Dioxopiperidin-3-yl)-7-methoxy-1,3-dioxo-2,3-dihydro-1H-isoindol-5-yl]piperazin-1-yl}methyl)piperidin-1-yl]-2-fluorophenyl}piperidin-1-yl)-4-methyl-1H-indole-3-carbonitrile] |
| 3 | 96 | 6 | 95 | N#Cc1c[nH]c2c(N3CCC(c4ccc(OCCCCN5CCN(c6ccc7c(c6)CN(C6CCC(=O)NC6=O)C7=O)CC5)cc4)CC3)ccc(Cl)c12 (stereo not drawn) [Example 45] |
| 37 | 101 | 71 | 96 | N#Cc1c[nH]c2c(N3CCC(c4ccc(N5CCC(CN6CCN(c7cc8c(cc7F)C(=O)N(C7CCC(=O)NC7=O)C8=O)CC6)CC5)cc4)CC3)ccc(Cl)c12 (stereo not drawn) [Example 51, 4-Chloro-7-(4-{4-[4-({4-[2-(2,6-dioxopiperidin-3-yl)-6-fluoro-1,3-dioxo-2,3-dihydro-1H-isoindol-5-yl]piperazin-1-yl}methyl)piperidin-1-yl]phenyl}piperidin-1-yl)-1H-indole-3-carbonitrile] |
| 36 | 77 | 52 | 97 | N#Cc1c[nH]c2c(N3CCC[C@H](c4ccc(N5CCC(CN6CCN(c7cc8c(cc7F)C(=O)N(C7CCC(=O)NC7=O)C8=O)CC6)CC5)cc4)C3)ccc(Cl)c12 (stereo partly drawn) [Example 54, 4-Chloro-7-[(3R)-3-{4-[4-({4-[2-(2,6-dioxopiperidin-3-yl)-6-fluoro-1,3-dioxo-2,3-dihydro-1H-isoindol-5-yl]piperazin-1-yl}methyl)piperidin-1-yl]phenyl}piperidin-1-yl]-1H-indole-3-carbonitrile] |
| 33 | 99 | 34 | 103 | N#Cc1c[nH]c2c(N3CCC(c4ccc(N5CCC(CN6CCN(c7ccc8c(c7)C(=O)N(C7CCC(=O)NC7=O)C8=O)CC6)CC5)cc4)CC3)ccc(Cl)c12 (stereo not drawn) [Example 55, 4-Chloro-7-(4-{4-[4-({4-[2-(2,6-dioxopiperidin-3-yl)-1,3-dioxo-2,3-dihydro-1H-isoindol-5-yl]piperazin-1-yl}methyl)piperidin-1-yl]phenyl}piperidin-1-yl)-1H-indole-3-carbonitrile] |

From US20260274832A1, “COMPOUNDS AND THEIR USE IN TREATING CANCER” (ASTRAZENECA AB, priority 2023, published 2026)
